According to PMC10514461, “Characterization of a novel inhibitor for the New Delhi metallo-β-lactamase-4: Implications for drug design and combating bacterial drug resistance” (The Journal of Biological Chemistry, 2023):

Columns and labels:
NDM-1 [1] = assay type: biochemical; conditions: against the NDMs (NDM-1 and NDM-4)
Protocol: The IC50 and Ki values were determined by the direct competition between nitrocefin substrate and inhibitors under appropriately controlled experiments. Different concentrations of inhibitor ranging from 0.001 to 500 μM, a fixed concentration of 12 nM of purified protein, and 20 μM of nitrocefin substrate were used in reaction. The rate of product formation was monitored based on the absorbance at 486 nm taken at 10 s intervals for 30 min. The relative change in absorbance was evaluated as percentage inhibition, and the IC50 was determined by fitting the data to a sigmoidal dose-response curve. The enzyme inhibition constant (Ki) was derived from initial-velocity measurements by nonlinear regression via competitive-inhibition enzyme kinetics using GraphPad Prism 9.

[2] = tested on: Verona-integron-encoded MBL 2; conditions: against Verona-integron-encoded MBL 2; cited from earlier work
NDM-1 [3] = biological target: NDM-1 (Klebsiella pneumoniae, UniProt C7C422); assay: Steady state kinetics of nitrocefin hydrolysis, NDM-1; assay type: biochemical; conditions: nitrocefin as substrate
Protocol: (§1) Nitrocefin (Cayman, CAS 41906-86-9) was used as the chromogenic substrate for all enzyme kinetic assays. The enzymatic activity of purified NDM-1 and NDM-4 was determined spectrophotometrically at room temperature in 1X PBS, pH 7. The rate of product formation was monitored based on the absorbance at 486 nm taken at 10 s intervals for 30 min. The KM and kcat values were determined from ten different concentrations of nitrocefin ranging from 0.01 μM to 250 μM with at least four independent initial-velocity measurements using 12 nM of each enzyme and fitted by nonlinear regression using Michaelis–Menten enzyme kinetics with GraphPad Prism 9 (https://www.graphpad.com/).

NDM-4 (M154L) = biological target: T1, NDM-4 (M154L) (Klebsiella pneumoniae, UniProt C7C422, M154L); assay: Steady state kinetics of nitrocefin hydrolysis, NDM-4; assay type: biochemical; conditions: nitrocefin as substrate
T1 construct: The electron density for the polypeptide chain was continuous from Gly 42 to Arg 270; polyhistidine (with TEV site) (N, cleaved yes); made in house; host or cells: Rosetta2(DE3) E. coli
Protocol: as §1

Sequence of NDM-1 (Klebsiella pneumoniae, UniProt C7C422) (C7C422 42-270 limits assumed): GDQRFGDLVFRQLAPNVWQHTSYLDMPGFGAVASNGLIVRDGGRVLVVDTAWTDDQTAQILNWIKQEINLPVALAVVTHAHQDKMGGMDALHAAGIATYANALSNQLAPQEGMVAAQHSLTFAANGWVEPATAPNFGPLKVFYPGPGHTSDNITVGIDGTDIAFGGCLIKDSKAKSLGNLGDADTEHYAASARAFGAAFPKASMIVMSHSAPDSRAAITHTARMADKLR
T1 sequence (C7C422 42-270 M154L): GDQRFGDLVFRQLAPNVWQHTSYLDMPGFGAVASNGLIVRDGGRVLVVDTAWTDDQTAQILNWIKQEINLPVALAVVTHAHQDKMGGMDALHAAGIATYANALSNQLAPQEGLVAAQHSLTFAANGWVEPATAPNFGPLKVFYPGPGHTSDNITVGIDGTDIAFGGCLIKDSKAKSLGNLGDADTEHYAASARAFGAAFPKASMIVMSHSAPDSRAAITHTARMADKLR

SMILES	potency over L-captopril (NDM-1 [1])	enhanced inhibition activity over parent scaffold 1,2 hydroxy pyrithione [2]	kcat (NDM-1 [3]; NDM-1)	Km (NDM-1 [3]; NDM-1, 1X PBS pH 7, room temperature)	kcat (NDM-4 (M154L); NDM-4)	Km (NDM-4 (M154L); NDM-4, 1X PBS pH 7, room temperature)
O=C(O)c1cccc(=S)n1O [Compound 1, 1-hydroxypyridine-2(1H)-thione-6-carboxylic acid]	> 1600 fold	more than 10 fold				
O=C(Cc1cccs1)N[C@@H]1C(=O)N2C(C(=O)O)=C(/C=C/c3ccc([N+](=O)[O-])cc3[N+](=O)[O-])CS[C@H]12 [Nitrocefin]			86 ± 11 s⁻¹	10.9 ± 0.6 µM	70 ± 7 s⁻¹	9.4 ± 0.2 µM
